In patent US5162336A, “Tetrahydro-pyrido-indoles as cholecystokinin and gastrin antagonists” (Rhone-Poulenc Rorer Pharmaceuticals Inc., priority 1990, dated 1992):

Target: T1, CCK-A receptor (Rattus norvegicus, UniProt P30551)
T1 construct: from tissue; host or cells: pancreas membranes of Sprague-Dawley rat
T1 sequence (P30551 1-444): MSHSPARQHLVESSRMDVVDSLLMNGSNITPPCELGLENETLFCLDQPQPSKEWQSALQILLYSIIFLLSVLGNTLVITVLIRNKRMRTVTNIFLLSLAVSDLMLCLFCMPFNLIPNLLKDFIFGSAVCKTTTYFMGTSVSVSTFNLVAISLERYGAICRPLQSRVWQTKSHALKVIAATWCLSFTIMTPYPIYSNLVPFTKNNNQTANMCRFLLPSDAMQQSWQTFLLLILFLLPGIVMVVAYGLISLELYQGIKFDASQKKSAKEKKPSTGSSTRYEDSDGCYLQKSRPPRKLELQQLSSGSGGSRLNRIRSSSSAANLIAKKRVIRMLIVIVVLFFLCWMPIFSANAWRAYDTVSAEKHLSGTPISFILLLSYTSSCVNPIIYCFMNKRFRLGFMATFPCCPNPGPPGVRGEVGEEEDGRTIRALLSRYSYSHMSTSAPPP
Assay: CCK-A receptor binding assay (displacement of 3H-L-364,718 from rat pancreas membranes)
Parameters: species or system Sprague-Dawley rat
Details: 3H-L-364,718 0.2 nM, 37° C., 30 min, read-out: In vitro Binding Data IC50 CCK
Experimental: Washer Buffer (for use with Brandel Cell Harvester):
30 liters of 50 mM Tris, ph 7.7: Dissolve 181.7 g. Tris base in 4 1. deionized water at room temperature. Adjust pH to 7.7 with 6 N HCl and Q.S. to 30 1.
50 mM Tris-Cl, 5 mM MgCl2, 5 mM dithio-thretiol, 0.14 mg/ml bacitracin, and 2 mg/ml bovine serum albumin.
1 liter of 5X stock buffer:
30.28 g. Tris base per 800 ml D.I. water 5.09 g. MgCl2 6 H2 O, pH to 7.7 at room temperature with 6N HCl and Q.S. 1 liter, store at 4° C.
250 ml working buffer kept on ice:
50 ml of 5X stock buffer 0.1928 g. dithiothretiol (5 mM), 35 mg bacitracin (0.14 mg/ml), and 0.5 g. BSA (2mg/ml).
Unlabeled L-364,718(nonpeptide ligand):
Unlabeled L-364,718 (300 nM final concentration) is used to define nonspecific binding. A 3 mM solution is made in absolute ethanol and stored in a scintillation vial at -70° C. Aliquots are diluted 100-fold in the assay.
A Sprague-Dawley rat is sacrificed by asphyxiation with carbon dioxide and the pancreas removed. The tissue is immersed in cold wash buffer and carefully trimmed of fat, connective tissue, blood vessels, blotted and weighed. The tissue is homogenized in a Sorvall SS-34 centrifuge tube in 50 volumes of wash buffer using a Polytron at setting 7 for 15 seconds. The tissue is centrifuged (Sorvall SS-34) at 19,000 rpm for 10 min. The supernatant is poured off and the pellet resuspended in sufficient buffer to obtain a contraction of 40 mg tissue wet weight/ml. Separate aliquots (2,3ml) are placed in each of 8 centrifuge tubes and centrifuged as before. The supernatants are poured off and the pellets stored at -70° C. Stored pellets are sufficient for the assay of 160 tubes and are stable for 1-2 months.
During the assay the stored membranes are resuspended in 40 ml of assay buffer by scraping the pellet off the wall of the centrifuge tube and washing it into a teflon-glass homogenizer. Membranes are resuspended by 5 passes with the teflon pestle and the membranes stored on ice until ready for use.
Preparation of Compounds:
Compounds are prepared in DMSO (dimethyl sulfoxide) or in assay buffer. The majority of structures active as CCK antagonists generally require DMSO for complete solubility. Approximately 2-3 mg of compound is weighed directly into a 13×100 mm test tube and sufficient DMSO added to obtain a working stock solution at a concentration 100 fold greater than the highest concentration being tested in the assay. A total of 10 μl of each concentration of drug is added into a final volume of 1 ml to yield a 100 fold dilution of the, working stock solution. Control binding tubes ("totals and nonspecifics") are also treated with 10 μl DMSO.
^3 H-L-364,718 is obtained from New England Nuclear (Cat. #971) and is used as supplied. The final assay concentration of ^3 H-L-364,718 in assay buffer should be 0.2 nM in a final assay volume of 1 ml. ^3 H-L-364,718 (0.2 pmol) is added into the assay in a volume of 25 μl (8 nM working stock solution). The required dilution (usually>1000 fold) is obtained by dividing the working stock concentration into the concentration of the specific lot.
Samples are prepared in triplicate and a "total" (buffer addition) and "nonspecific" (300 nM unlabeled L-364,718) set of tubes included in each set of 24 tubes. The remaining 6 sets of triplicates are used either for screening or IC50 determinations. The order of addition is drugs-DMSO, buffer, unlabeled L-364,718, ^3 H-L-364,718, and to start the assay, membranes.
While tubes are incubating a shaking water bath at 37° C. for 30 min Brandel deposit/dispense filters are presoaked in wash buffer. Following the end of the incubation, sets of 24 tubes are rapidly washed with assay buffer as follows. Assay buffer is added to the incubation tubes to the height of the uppermost cross support in the standard Brandel test tube rack and the contents immediately aspirated. This process is repeated twice more, the filter removed, marked and the next set of 24 tubes processed. […]

IC50 | SMILES
> 300 µM | CC(C)C[C@H](NC(=O)[C@H]1Cc2c([nH]c3ccccc23)CN1)C(=O)N[C@@H](CC(=O)O)C(N)=O [Example 1, N-[(3R)-1,2,3,4-tetrahydro-9H-pyrido[3,4-b]indole-3-carboxyl]-L-leucyl-L-aspartic acid amide]
> 300 µM | CC(C)C[C@H](NC(=O)[C@@H]1Cc2c([nH]c3ccccc23)CN1)C(=O)N[C@@H](CC(=O)O)C(N)=O [Example 2, N-[(3S)-1,2,3,4-tetrahydro-9H-pyrido[3,4-b]indole-3-carboxyl]-L-leucyl-L-aspartic acid amide]
> 300 µM | NC(=O)[C@H](CC(=O)O)NC(=O)[C@H]1Cc2c([nH]c3ccccc23)CN1 [Example 3, N-[(3R)-1,2,3,4-tetrahydro-9H-pyrido[3,4-b]-indole-3-carboxyl]-L-aspartic acid amide]
> 300 µM | NC(=O)[C@H](CC(=O)O)NC(=O)[C@@H]1Cc2c([nH]c3ccccc23)CN1 [Example 4, N-[(3S)-1,2,3,4-tetrahydro-9H-pyrido[3,4-b]indole-3-carboxyl]-L-aspartic amide]
50 to 60 µM | O=C(NCC(c1ccccc1)c1ccccc1)[C@H]1Cc2c([nH]c3ccccc23)CN1 [Example 5, (3R)-3-(2,2'-diphenyl)ethylcarbamoyl-1,2,3,4-tetrahydro-9H-pyrido[3,4-b]indole]
62 µM | O=C(NC(c1ccccc1)c1ccccc1)[C@H]1Cc2c([nH]c3ccccc23)CN1 [Example 6, (3R)-3-diphenylmethylcarbamoyl-1,2,3,4-tetrahydro-9H-pyrido[3,4-b]indole]
82 µM | NC(=O)[C@H](CC(=O)O)NC(=O)[C@H]1Cc2c([nH]c3ccccc23)CN1C(=O)c1ccccc1 [Example 8, N-[(3R)-2-benzoyl-1,2,3,4-tetrahydro-9H-pyrido[3,4-b]indole-3-carboxyl]-L-aspartic acid amide]
230 µM | CC(C)C[C@H](NC(=O)[C@H]1Cc2c([nH]c3ccccc23)CN1C(=O)c1ccccc1)C(=O)N[C@@H](CC(=O)O)C(N)=O [Example 9, N-[(3R)-2-benzoyl-1,2,3,4-tetrahydro-9H-pyrido[3,4-b]indole-3-carboxyl]-L-leucyl-L-aspartic acid amide]
25 µM | CC(C)C[C@H](NC(=O)[C@H]1Cc2c([nH]c3ccccc23)CN1C(=O)c1ccc2ccccc2c1)C(=O)N[C@@H](CC(=O)O)C(N)=O [Example 10, N-[(3R)-2-(2-naphthoyl)-1,2,3,4-tetrahydro-9H-pyrido[3,4-b]indole-3-carboxyl]-L-leucyl-L-aspartic acid amide]
34 µM | Cc1cccc(NC(=O)N2Cc3[nH]c4ccccc4c3C[C@@H]2C(=O)N[C@@H](CC(C)C)C(=O)N[C@@H](CC(=O)O)C(N)=O)c1 [Example 11, N-[(3R)-2-(3-methylphenylcarbamoyl)-1,2,3,4-tetrahydro-9H-pyrido[3,4-b]indole-3-carboxyl]-L-leucyl-L-aspartic acid amide]
170 µM | Cc1cccc(NC(=O)N2Cc3[nH]c4ccccc4c3C[C@H]2C(=O)N[C@@H](CC(C)C)C(=O)N[C@@H](CC(=O)O)C(N)=O)c1 [Example 12, N-[(3S)-2-(3-methylphenylcarbamoyl)-1,2,3,4-tetrahydro-9H-pyrido[3,4-b]indole-3-carboxyl]-L-leucyl-L-aspartic acid amide]
10 µM | CCCCCN(CCCCC)C(=O)[C@H]1Cc2c([nH]c3ccccc23)CN1C(=O)Nc1cccc(C)c1 [Example 13, (3R)-3-(N,N-dipentylcarbamoyl)-2-(3-methylphenylcarbamoyl)-1,2,3,4-tetrahydro-9H-pyrido[3,4-b]indole]
> 100 µM | CC(C)C[C@H](NC(=O)[C@H]1Cc2c([nH]c3ccccc23)CN1C(=O)Nc1ccccc1)C(=O)N[C@@H](CC(=O)O)C(N)=O [Example 14, N-[(3R)-2-phenylcarbamoyl-1,2,3,4-tetrahydro-9H-pyrido[3,4-b]indole-3-carboxyl]-L-leucyl-L-aspartic acid amide]
9 µM | CCOC(=O)c1ccc(NC(=O)[C@H]2Cc3c([nH]c4ccccc34)CN2C(=O)OCc2ccccc2)cc1 [Example 15, ethyl 4-N-[(3R)-2-carbobenzoxy-1,2,3,4-tetrahydro-9H-pyrido[3,4-b]indole-3-carboxyl]aminobenzoate]
10 to 25 µM | CCOC(=O)c1cccc(NC(=O)[C@H]2Cc3c([nH]c4ccccc34)CN2C(=O)OCc2ccccc2)c1 [Example 16, ethyl 3-N-[(3R)-2-carbobenzoxy-1,2,3,4-tetrahydro-9H-pyrido[3,4-b]indole-3-carboxyl]aminobenzoate]
> 10 µM | CCOC(=O)c1ccccc1NC(=O)[C@H]1Cc2c([nH]c3ccccc23)CN1C(=O)OCc1ccccc1 [Example 17]
25 µM | O=C(Nc1ccccc1C(=O)N1CCCC1)[C@H]1Cc2c([nH]c3ccccc23)CN1C(=O)OCc1ccccc1 [Example 18, pyrrolidine-2-N-[(3R)-2-carbobenzoxy-1,2,3,4-tetrahydro-9H-pyrido-[3,4-b]indole-3-carboxyl]aminobenzamide]
20 µM | O=C(Nc1ccccc1C(=O)N1CCCC1)[C@@H]1Cc2c([nH]c3ccccc23)CN1C(=O)OCc1ccccc1 [Example 19, pyrrolidine-2-N-[(3S)-2-carbobenzoxy-1,2,3,4-tetrahydro-9H-pyrido[3,4-b]indole-3-carboxyl]aminobenzamide]
> 30 µM | O=C(Nc1ccccc1C(=O)N1CCCC1)[C@H]1Cc2c([nH]c3ccccc23)CN1C(=O)c1ccc2ccccc2c1 [Example 20, pyrrolidine-2-N-[(3R)-2-(2-naphthoyl)-1,2,3,4-tetrahydro-9H-pyrido[3,4-b]indole-3-carboxyl]aminobenzamide]
> 10 µM | CCCCN(CCCC)C(=O)c1ccccc1NC(=O)[C@H]1Cc2c([nH]c3ccccc23)CN1C(=O)OCc1ccccc1 [Example 22]
> 10 µM | CCOC(=O)c1ccccc1NC(=O)[C@@H]1Cc2c([nH]c3ccccc23)CN1C(=O)OCc1ccccc1 [Example 23, ethyl 2-N-[(3S)-2-carbobenzoxy-1,2,3,4-tetrahydro-9H-pyrido[3,4-b]indole-3-carboxyl]aminobenzoate]
36 µM | CC[C@H](C)[C@H](NC(=O)[C@H]1Cc2c([nH]c3ccccc23)CN1C(=O)Nc1ccc(Cl)c(Cl)c1)C(=O)N[C@@H](CC(=O)O)C(N)=O [Example 24, N-[(3R)-2-(3,4-dichlorophenylcarbamoyl)-1,2,3,4-tetrahydro-9H-pyrido[3,4-b]indol-3-yl]carbonyl-L-isoleucyl-L-aspartic acid amide]
100 µM | NC(=O)[C@H](CC(=O)O)NC(=O)C1(NC(=O)[C@H]2Cc3c([nH]c4ccccc34)CN2C(=O)Nc2ccc(Cl)c(Cl)c2)CCCC1 [Example 26]
14 µM | CC(C)C[C@H](NC(=O)[C@H]1Cc2c([nH]c3ccccc23)CN1C(=O)Nc1ccc(Cl)c(Cl)c1)C(=O)NCCC(=O)O [Example 27]
